Test results as given in PubChem BioAssay AID330 (DTP/NCI, 2004).
“And” between values parts separate entries of the source, which are not always exact repeats. Equal values may be shown once. Inconclusive results and toxic doses are left out.

System: P388 leukemia ip, CD2F1 mice, survival T/C
Assay: NCI In Vivo Anticancer Drug Screen. Data for tumor model P388 Leukemia (intraperitoneal) in CD2F1 (CDF1) mice
Conditions: endpoint: median survival time, higher = longer survival
In short: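 Mice carrying the transplanted tumor received test compound or vehicle. Survival was recorded in each group, and the value is the treated-group measurement divided by that of the vehicle-treated control group.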

[1] = dose: 25.0 mg/kg/injection, schedule: Q01DX009 (ip), vehicle: saline with Tween-80
[2] = dose: 50.0 mg/kg/injection, schedule: Q01DX009 (ip), vehicle: saline with Tween-80
[3] = dose: 100.0 mg/kg/injection, schedule: Q01DX009 (ip), vehicle: saline with Tween-80
[4] = dose: 60.0 mg/kg/injection, schedule: Q01DX005 (ip), vehicle: Klucel (hydroxypropylcellulose) (HPC)
[5] = dose: 120.0 mg/kg/injection, schedule: Q01DX005 (ip), vehicle: Klucel (hydroxypropylcellulose) (HPC)
[6] = dose: 240.0 mg/kg/injection, schedule: Q01DX005 (ip), vehicle: Klucel (hydroxypropylcellulose) (HPC)
[7] = dose: 120.0 mg/kg/injection, schedule: Q01DX005 (ip), vehicle: saline
[8] = dose: 50.0 mg/kg/injection, schedule: Q01DX009 (ip), vehicle: Klucel (hydroxypropylcellulose) (HPC)
[9] = dose: 100.0 mg/kg/injection, schedule: Q01DX009 (ip), vehicle: Klucel (hydroxypropylcellulose) (HPC)
[10] = dose: 200.0 mg/kg/injection, schedule: Q01DX009 (ip), vehicle: Klucel (hydroxypropylcellulose) (HPC)

O=C1C=C(N2CC2)C(=O)C=C1N1CC1
T/C (dose: 0.12 mg/kg/injection, schedule: Q01DX009 (ip), vehicle: saline): 157 % of control
T/C (dose: 0.25 mg/kg/injection, schedule: Q01DX009 (ip), vehicle: saline): 150 % of control and 170 % of control and 196 % of control
T/C (dose: 0.5 mg/kg/injection, schedule: Q01DX009 (ip), vehicle: saline): 153 % of control and 185 % of control and 206 % of control
T/C (dose: 1.0 mg/kg/injection, schedule: Q01DX009 (ip), vehicle: saline): 95 % of control

CCC(CN1N=C(c2ccc(Cl)cc2)CCC1=O)C(=O)CCC(=O)O (configuration not stated)
T/C (dose: 50.0 mg/kg/injection, schedule: Q01DX005 (ip), vehicle: Klucel (hydroxypropylcellulose) (HPC)): 104 % of control
T/C (dose: 100.0 mg/kg/injection, schedule: Q01DX005 (ip), vehicle: Klucel (hydroxypropylcellulose) (HPC)): 105 % of control
T/C (dose: 200.0 mg/kg/injection, schedule: Q01DX005 (ip), vehicle: Klucel (hydroxypropylcellulose) (HPC)): 113 % of control

Cc1cc(C)c(C2C(=O)c3ccccc3C2=O)c(C)c1
T/C [1]: 111 % of control
T/C [2]: 109 % of control
T/C [3]: 116 % of control
T/C (dose: 200.0 mg/kg/injection, schedule: Q01DX009 (ip), vehicle: saline with Tween-80): 110 % of control

CN1CC(CO)=CC2c3cccc4[nH]cc(c34)CC21 (configuration not stated)
T/C [1]: 111 % of control
T/C [2]: 104 % of control
T/C [3]: 104 % of control

CCOC1(C)Oc2cc3c(cc2C(c2cc(OC)c(OC)c(OC)c2)C1C)OCO3 (configuration not stated)
T/C [4]: 96 % of control
T/C [5]: 100 % of control
T/C [6]: 98 % of control

C/C=C1/CN2CCC34c5ccccc5N(C)C23C2CC1C4(C(=O)OC)C(OC(C)=O)O2 (configuration not stated)
T/C (dose: 9.25 mg/kg/injection, schedule: Q01DX005 (ip), vehicle: saline + Tween-80 + alcohol): 96 % of control
T/C (dose: 18.5 mg/kg/injection, schedule: Q01DX005 (ip), vehicle: saline + Tween-80 + alcohol): 106 % of control
T/C (dose: 37.0 mg/kg/injection, schedule: Q01DX005 (ip), vehicle: saline + Tween-80 + alcohol): 112 % of control
T/C (dose: 74.0 mg/kg/injection, schedule: Q01DX005 (ip), vehicle: saline + Tween-80 + alcohol): 100 % of control

CC(=O)OCC1OC(n2nc(/C=C/c3ccco3)c(=O)n(-c3ccccc3)c2=S)C(OC(C)=O)C(OC(C)=O)C1OC(C)=O (configuration not stated)
T/C (dose: 100.0 mg/kg/injection, schedule: Q04DX003 (ip), vehicle: saline with Tween-80): 107 % of control
T/C (dose: 200.0 mg/kg/injection, schedule: Q04DX003 (ip), vehicle: saline with Tween-80): 100 % of control
T/C (dose: 400.0 mg/kg/injection, schedule: Q04DX003 (ip), vehicle: saline with Tween-80): 101 % of control

Cc1cc2c(cc1C)NC1=C(N2)OC(c2c3ccccc3cc3ccccc23)C1=O (configuration not stated)
T/C [4]: 92 % of control
T/C [5]: 88 % of control
T/C [6]: 90 % of control

C1C[N+]2(CCO1)CC[N+]1(CCOCC1)CC2
T/C (dose: 60.0 mg/kg/injection, schedule: Q01DX005 (ip), vehicle: saline): 110 % of control
T/C [7]: 101 % of control
T/C (dose: 240.0 mg/kg/injection, schedule: Q01DX005 (ip), vehicle: saline): 101 % of control

CC(=O)Nc1ccc(S(=O)(=O)Nc2cccc3[nH]c(=O)oc23)cc1
T/C (dose: 50.0 mg/kg/injection, schedule: Q04DX002 (ip), vehicle: Klucel (hydroxypropylcellulose) (HPC)): 98 % of control
T/C (dose: 100.0 mg/kg/injection, schedule: Q04DX002 (ip), vehicle: Klucel (hydroxypropylcellulose) (HPC)): 95 % of control
T/C (dose: 200.0 mg/kg/injection, schedule: Q04DX002 (ip), vehicle: Klucel (hydroxypropylcellulose) (HPC)): 92 % of control

O=C(Nc1c(Cl)cccc1Cl)OC1CCCCCCCCCCC1
T/C [8]: 100 % of control
T/C [9]: 92 % of control
T/C [10]: 86 % of control

COc1ccc(/C=C/C(=O)C(C)(CN(C)C)CN(C)C)cc1
T/C (dose: 30.0 mg/kg/injection, schedule: Q01DX005 (ip), vehicle: saline): 123 % of control
T/C [7]: 121 % of control

Cc1ccc(C#N)s1
T/C (dose: 3.12 mg/kg/injection, schedule: Q01DX009 (ip), vehicle: saline with Tween-80): 104 % of control
T/C (dose: 6.25 mg/kg/injection, schedule: Q01DX009 (ip), vehicle: saline with Tween-80): 103 % of control
T/C (dose: 12.5 mg/kg/injection, schedule: Q01DX009 (ip), vehicle: saline with Tween-80): 102 % of control
T/C [1]: 95 % of control

c1ccc2c(c1)CC1OCN3CN(COC4Cc5ccccc5CC43)C1C2 (configuration not stated)
T/C (dose: 50.0 mg/kg/injection, schedule: Q01DX005 (ip), vehicle: saline): 114 % of control
T/C (dose: 100.0 mg/kg/injection, schedule: Q01DX005 (ip), vehicle: saline): 111 % of control
T/C (dose: 200.0 mg/kg/injection, schedule: Q01DX005 (ip), vehicle: saline): 112 % of control

C/C(=C\C(=O)c1ccccc1)Nc1noc(-c2ccccc2)n1
T/C (dose: 60.0 mg/kg/injection, schedule: Q01DX005 (ip), vehicle: saline with Tween-80): 97 % of control
T/C (dose: 120.0 mg/kg/injection, schedule: Q01DX005 (ip), vehicle: saline with Tween-80): 94 % of control
T/C (dose: 240.0 mg/kg/injection, schedule: Q01DX005 (ip), vehicle: saline with Tween-80): 96 % of control

CCCCCCCCCCCCCN1CCS(=O)(=O)CC1
T/C [8]: 98 % of control
T/C [9]: 94 % of control
T/C [10]: 89 % of control

Nc1nc(N)n2c(N)nnc2n1
T/C (dose: 50.0 mg/kg/injection, schedule: Q01DX009 (ip), vehicle: saline): 105 % of control
T/C (dose: 100.0 mg/kg/injection, schedule: Q01DX009 (ip), vehicle: saline): 107 % of control
T/C (dose: 200.0 mg/kg/injection, schedule: Q01DX009 (ip), vehicle: saline): 102 % of control

C=C1CC2(CC(C(=C)C)CCC2C)OC1=O (configuration not stated)
T/C (dose: 100.0 mg/kg/injection, schedule: Q01DX001 (ip), vehicle: saline): 101 % of control
T/C (dose: 200.0 mg/kg/injection, schedule: Q01DX001 (ip), vehicle: saline): 99 % of control
T/C (dose: 400.0 mg/kg/injection, schedule: Q01DX001 (ip), vehicle: saline): 102 % of control

C[n+]1c2ccccc2c2c3c(cccc31)C(=O)c1cc(Cl)ccc1-2 (tested in a mixture with another compound)
T/C (dose: 3.12 mg/kg/injection, schedule: Q01DX009 (ip), vehicle: water): 106 % of control
T/C (dose: 6.25 mg/kg/injection, schedule: Q01DX009 (ip), vehicle: water): 98 % of control
T/C (dose: 12.5 mg/kg/injection, schedule: Q01DX009 (ip), vehicle: water): 98 % of control

COc1cc2c[n+]3ccccc3c(N)c2cc1OC
T/C (dose: 50.0 mg/kg/injection, schedule: Q04DX003 (ip), vehicle: distilled water + Tween-80): 110 % of control
T/C (dose: 100.0 mg/kg/injection, schedule: Q04DX003 (ip), vehicle: distilled water + Tween-80): 106 % of control
T/C (dose: 200.0 mg/kg/injection, schedule: Q04DX003 (ip), vehicle: distilled water + Tween-80): 97 % of control

CCCc1c(C(=O)OCCCN(CC)CC)c(C(=O)OCCCN(CC)CC)c(CCC)n1-c1ccccc1
T/C (dose: 25.0 mg/kg/injection, schedule: Q01DX005 (ip), vehicle: saline): 105 % of control

COC(=O)C(Br)CN1C(=O)c2ccccc2C1=O (configuration not stated)
T/C (dose: 25.0 mg/kg/injection, schedule: Q01DX009 (ip), vehicle: other): 102 % of control
T/C (dose: 50.0 mg/kg/injection, schedule: Q01DX009 (ip), vehicle: other): 101 % of control
T/C (dose: 100.0 mg/kg/injection, schedule: Q01DX009 (ip), vehicle: other): 106 % of control
T/C (dose: 200.0 mg/kg/injection, schedule: Q01DX009 (ip), vehicle: other): 104 % of control
T/C (dose: 400.0 mg/kg/injection, schedule: Q01DX009 (ip), vehicle: other): 104 % of control

CC(=O)OCC1OC(SP(c2ccccc2)c2ccccc2)C(OC(C)=O)C(OC(C)=O)C1OC(C)=O (configuration not stated)
T/C (dose: 50.0 mg/kg/injection, schedule: Q01DX009 (ip), vehicle: saline + alcohol): 116 % of control
T/C (dose: 100.0 mg/kg/injection, schedule: Q01DX009 (ip), vehicle: saline + alcohol): 118 % of control
T/C (dose: 200.0 mg/kg/injection, schedule: Q01DX009 (ip), vehicle: saline + alcohol): 108 % of control

O=C1C=C(N2CC2)C(=O)C(N2CC2)=C1N1CC1
T/C (dose: 0.02 mg/kg/injection, schedule: Q01DX005 (ip), vehicle: saline): 155 % of control
T/C (dose: 0.04 mg/kg/injection, schedule: Q01DX005 (ip), vehicle: saline): 157 % of control and 158 % of control and 175 % of control
T/C (dose: 0.08 mg/kg/injection, schedule: Q01DX005 (ip), vehicle: saline): 191 % of control and 194 % of control and 214 % of control
T/C (dose: 0.16 mg/kg/injection, schedule: Q01DX005 (ip), vehicle: saline): 215 % of control and 226 % of control and 287 % of control
T/C (dose: 0.32 mg/kg/injection, schedule: Q01DX005 (ip), vehicle: saline): 111 % of control
